Test results published in article PMC12670405, “Second-Generation AURKA-Targeting PROTACs: Structural Optimization toward in Vivo Degradation in Neuroblastoma” (Journal of Medicinal Chemistry, 2025).

How the values were obtained:
NanoLuc-AURKA [1] = target: T1, NanoLuc-AURKA (Homo sapiens, UniProt O14965); assay: NanoBRET target engagement, permeabilized mode; format: binding; conditions: permeabilized HEK293T
T1 construct: Plasmids encoding full-length wild-type AURKA fused to Nano-Luc; host or cells: HEK293T
T1 sequence (O14965 1-403): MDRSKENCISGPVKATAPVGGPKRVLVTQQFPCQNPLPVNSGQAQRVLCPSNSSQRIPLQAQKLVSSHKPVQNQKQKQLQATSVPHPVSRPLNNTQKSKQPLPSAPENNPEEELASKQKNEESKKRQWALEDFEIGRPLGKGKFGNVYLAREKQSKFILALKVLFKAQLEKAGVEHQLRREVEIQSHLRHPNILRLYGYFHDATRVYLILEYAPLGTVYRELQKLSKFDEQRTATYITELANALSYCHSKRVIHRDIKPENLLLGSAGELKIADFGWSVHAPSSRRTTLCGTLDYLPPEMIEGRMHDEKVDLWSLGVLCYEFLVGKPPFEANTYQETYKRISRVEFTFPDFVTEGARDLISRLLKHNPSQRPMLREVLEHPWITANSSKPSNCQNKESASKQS
Description: (§1) The NanoBRET Target Engagement Assay (Promega) was performed according to the recommended instructions from the manufacturer. Plasmids encoding full-length wild-type AURKA fused to Nano-Luc via AURKA’s C-terminus (Promega, #NV1041) were transfected into HEK293T cells using FuGENE HD (Promega, #E2312). […] The plate was mixed at 900 rpm for 15 s, using an orbital shaker. For the permeabilized-mode, digitonin (Sigma-Aldrich, #D141) was additionally added at a final concentration of 50 μg/mL. Test compounds were subsequently administered in duplicate using the D300e digital dispenser (Tecan), followed by incubation for 2 h (37 °C, 5% CO2). To measure BRET, nanoglo substrate and extracellular nanoluc inhibitor (only in live-mode) (Promega #N2540) were added, and luminescence was measured using the GloMax Discover Microplate Reader (Promega) with a luminescence filter pair of 450 nm (BP filter, donor) and 600 nm (LP filter, acceptor). The NanoBRET ratio was calculated using the following formula: BRET ratio = 1000*[(acceptor signal/donor signal)with tracer – (acceptor signal/donor signal)no tracer]. Relative BRET ratios (%) were generated by normalizing to the negative DMSO control. The experiment was performed once with 2 replicate samples.
(§2) All dose–response curves were computed on GraphPad Prism using the Variable Slope (four parameters) equation. Absolute half-maximal degradation (DC50), growth inhibitory (GI50) and enzymatic inhibitory (IC50) concentrations, as well as inhibition constants (Ki) were derived from dose–response curves via interpolation. Statistical tests were performed on GraphPad Prism and detailed in the figure legends. Unless otherwise stated, “n” in the figure legends indicates the number of independent experiments conducted at different times.

SK-N-BE(2)-C = assay: IncuCyte live-cell imaging, antiproliferative effect; format: cell-based, human; conditions: Homo sapiens, SK-N-BE(2)-C, 72 h, read-out: Cell GI50 72h
Source text: Human neuroblastoma cell lines NGP, IMR-32, SJNB-8, SK-N-BE(2)-C, SJNB-1, SK-N-SH and SK-N-AS, as well as benign immortalized cell lines RPE and HEK293T were either bought commercially or obtained through research laboratories. […] Screening for mycoplasma contamination occurred routinely on the cells. Human neuroblastoma cell lines SH-SY5Y_shABCB1 & SH-SY5Y_shNTC were generated by transduction with pLKO.1-ABCB1_TRCN0000059683 shRNA (Sigma MISSION SHCLND) or pLKO.1-puro NT shRNA (Sigma MISSION SHC002) vectors respectively (Supplementary Table S6), packaged using Lenti-X293T (Clontech). Transduced cells were selected with 2 μg/mL puromycin. These cells were cultured in DMEM 4.5 g/L D-Glucose, L-Glutamine and 110 mg/L Sodium Pyruvate (Gibco, #11995065) supplemented with 10% fetal bovine serum, 1× Antibiotic-Antimycotic solution (Sigma-Aldrich, #A5955) and 1× MEM nonessential amino acids (Sigma-Aldrich, #M7145). Incubation of all cells occurred at 37 °C and 5% CO2.
Neuroblastoma cells were seeded in 384-well plates at different densities ranging from 1200 to 5000 cells/well and allowed to adhere overnight. RPE and HEK293T were seeded at 200 and 600 cells/well, respectively. Compound treatment was performed using the D300e Digital Dispenser (Tecan) in duplicate or triplicate and cell confluency was monitored over time using the IncuCyte Live-cell imaging system (Sartorius). […] Mean normalized confluences were calculated from 3 individual experiments.
as §2

NanoLuc-AURKA [2] = target: T1, NanoLuc-AURKA; assay: NanoBRET target engagement, live (intact) cells; format: cell-based; conditions: intact HEK293T
Description: as §1, §2

NGP = assay: IncuCyte live-cell imaging, antiproliferative effect; format: cell-based; conditions: Homo sapiens, 72 h, read-out: Cell GI50 72h, NGP (Figure 4B)
Method in brief: (§3)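 Cells seeded in 384-well plates (neuroblastoma 1200–5000, HEK293T 600 cells/well), adhered overnight, then compound-treated in duplicate or triplicate; confluency tracked by IncuCyte live-cell imaging. Normalized confluence averaged from 3 experiments; absolute GI50 interpolated from four-parameter variable-slope curves.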

HEK293T = assay: as above; format: cell-based; conditions: Homo sapiens, HEK-293T, 72 h, read-out: Cell GI50 72h
Method in brief: as §3

IMR-32 = assay: as above; format: cell-based; conditions: Homo sapiens, IMR-32, 72 h, read-out: Cell GI50 72h, IMR-32
Method in brief: as §3

SJNB-8 = assay: as above; format: cell-based; conditions: Homo sapiens, 72 h, read-out: Cell GI50 72h, SJNB-8
Method in brief: as §3

SK-N-AS = assay: as above; format: cell-based; conditions: Homo sapiens, 72 h, read-out: Cell GI50 72h
Method in brief: as §3

SK-N-SH = assay: as above; format: cell-based; conditions: Homo sapiens, 72 h, read-out: Cell GI50 72h
Method in brief: as §3

RPE = assay: as above; format: cell-based; conditions: 72 h, read-out: Cell GI50 72h

SMILES | potency relative to SK4454 and SK5527 in NanoBRET (NanoLuc-AURKA [1]) | GI50 (SK-N-BE(2)-C) | NanoLuc-AURKA engagement in intact cells (in words) (NanoLuc-AURKA [2]) | GI50 (NGP) | GI50 (HEK293T) | GI50 (IMR-32) | GI50 (SJNB-8) | GI50 (SK-N-AS) | GI50 (SK-N-SH) | GI50 (RPE)
O=C(O)[C@]1(Cc2cccc(Nc3nccs3)n2)CC[C@@H](Oc2cccc(Cl)c2F)CC1 [MK-5108, reference compound] | at least 10 times | 302 nM | stronger AURKA engagement than TAS-119 | 263 nM | 1310 nM | 119 nM | 348 nM | 911 nM | 249 nM | 953 nM
Cc1cc(Nc2nc(CC3(C(=O)O)CCN(C(=O)c4cccc(Cl)c4Cl)CC3)ccc2F)n[nH]1 [TAS-119, reference compound] | at least 10 times | 57 nM |  | 20 nM | 184 nM | 11 nM | 44 nM | 134 nM | 30 nM | 250 nM
